From patent US9012365B2, “Compatibility agents for herbicidal formulations comprising 2,4-(Dichlorophenoxy) acetic acid salts” (priority 2006, dated 2015)

Tests used:
Type in all cases: physicochemical
[1] = Crystal formation of 2,4-D in 1000 ppm hard water + AMS after post-adding surfactant; conditions: 0.069 g surfactant added to 3% 2,4-DMA (50%) + 90% water (1000 ppm hardness) + 7% AMS (40%), room temperature
From the text: FIG. 3 is a photograph illustrating the effect of various concentrations of cocoamine-2EO (“Coco-2”) and/or tallow-10EO (“Tallow-10”) on crystal formation of 2,4-D. (A) 0% Coco-2/0% Tallow-10. (B) 100% Coco-2/0% Tallow-10. (C) 45% Coco-2/55% Tallow-10. (D) 50% Coco-2/50% Tallow-10. (E) 55% Coco-2/45% Tallow-10.(F) 60% Coco-2/40% Tallow-10. (G) 0% Coco-2/100% Tallow-10.
In FIG. 3, sample (0:0) was 3% 2,4-DMA (50%)+90% water (1000 ppm hardness)+7% AMS (40%) and it readily formed crystals at room temperature.
The first sample, (0:0), on the left had no surfactant and it had about 15% crystal at the bottom. The rest of the samples had 0.069 g surfactant post-added to the first sample. […] Sample (0:100) was a little hazy with ˜5% crystal at bottom.

[2] = Solubility of tested chemical in DI water
Experimental: (§1) In example 1, the electrolyte tolerance of 6 chemicals with and without the presence of 2,4-D amine was evaluated in ammonium sulfate system.

[3] = Appearance of 10 g solution of (2.5 wt % ai 2,4-D DMA + tested chemical) after adding 40% AMS; conditions: for 0 gram Appearance / Addition Weight of 40% AMS: System was clear after adding / Addition Weight of 40% AMS: System was cloud after adding: 0.13 wt % a.i. of tested chemical, 2.5 wt % ai 2,4-D DMA; for 0 gram Appearance: 0 gram 40% AMS; for Addition Weight of 40% AMS: System was clear after adding / Addition Weight of 40% AMS: System was cloud after adding: 10 g solution; for Added 40% AMS wt into 10 g (2.5% 2,4-D + 0.13% tested chemical in DI water), hazy / Added 40% AMS wt into 10 g (2.5% 2,4-D + 0.13% tested chemical in DI water), still clear: Table of Example 1; for Appearance, added 40% AMS wt into 10 g (2.5% 2,4-D + 0.13% tested chemical in DI water): at 0 g AMS added, or at all additions (All)
Experimental: In this example, the appearance of a 10 g solution of (2.5 wt % ai 2,4-D DMA+tested chemical) was evaluated after adding 40% AMS

[4] = Electrolyte tolerance: 40% AMS added into 10 g 0.13% tested chemical in DI water; conditions: for Appearance, added 40% AMS wt into 10 g 0.13% tested chemical in DI water: at 0 g AMS added, or at all additions (All); for Solubility / compatibility in water or AMS solution (in words): without 2,4-D amine
Experimental: as §1

[5] = Solubility of tested chemical in 40% AMS (ammonium sulfate)
Experimental: as §1

[6] = Compatibility of 2,4-D DMA premix with 28% N fertilizer (phase diagram, coarse particle formation)
Experimental: FIG. 2 is a photograph illustrating the effect of cocoamine-2EO methylchloride on coarse particle formation of 2,4-D ammonium salt. (A) 90% 28% N; 1% 2,4-D DMA; and 9% DI water. (B) 90% 28% N; 1% 2,4-D DMA; 5.5% DI water; and 3.5% Coco 2EO quat.
However, if 10% pre-mixed (8:2 water: 2,4-D DMA-50% ai) is added to 90% 28% N, a hazy system with coarse particles (2,4-D NH4 salt) will form in a few minutes at room temperature.

[7] = System appearance and pH after adding chemicals into System A
From the text: System appearance after adding various chemicals into “System A” which was 100 g of 3% 2,4-D DMA (50%)+90% water (1000 ppm)+7% Ammonium sulfate (40%).

[8] = added into 100 g System A, added wt 0.815 g Ethoquad, 0.079 g NH4OH, 0.091 g dimethylamine, 1.07 g NaOH

Row | Substance | Appearance of sample [1] | Appearance of sample ([1]; listed as Sample (100:0)) | Solubility of tested chemical in DI Water [2] | Compatibility in 2,4-D amine and AMS solution (in words) [3] | 0 gram Appearance [3] | Addition Weight of 40% AMS: System was clear after adding [3] [grams] | Addition Weight of 40% AMS: System was cloud after adding [3] [grams] | Added 40% AMS wt into 10 g (2.5% 2,4-D + 0.13% tested chemical in DI water), hazy [3] | Added 40% AMS wt into 10 g (2.5% 2,4-D + 0.13% tested chemical in DI water), still clear [3] [g] | Appearance, added 40% AMS wt into 10 g (2.5% 2,4-D + 0.13% tested chemical in DI water) [3] | Appearance, added 40% AMS wt into 10 g 0.13% tested chemical in DI water [4] | Solubility / compatibility in water or AMS solution (in words) [4] | Solubility of testes chemical in 40% AMS [5] | Spray solution obtained ([6]; 10% pre-mixed (8:2 Ethoquad C/12W-43.7%: 2,4-D DMA-50% ai) added to 90% 28% N) | Effect on formation of coarse particles of the 2,4-D ammonium salt ([6]; 28% N fertilizer, room temperature, FIG. 2) | pH change of System A (in words) [7] | Appearance [7, 8] | pH [7, 8]
1 | Cocoamine-2EO | hazy product without crystals | hazy sample with a little oily sediment at bottom | <0.016% | very good compatibility | Clear | 2.096 | 2.264 | 2.26 g | 2.1 | clear | All hazy | little compatibility | <0.016% |  |  |  |  | 
2 | Cocoamine-2EO methylchloride |  |  | All clear | very good compatibility agent | Clear | 2.21 | 2.511 | 2.51 g hazy | 2.21 | clear | All clear | excellent solubility in water and electrolyte tolerance | All clear | non-nozzle plugging spray solution | prevent or minimize the formation of coarse particles | only changed slightly | clear | 5.2
3 | Hexyl glycoside |  |  | All clear | poor compatibility agent | Clear | 0.179 | 0.359 | 0.36 g hazy | 0.18 | clear | All clear | excellent solubility in water and electrolyte tolerance | All clear |  |  |  |  | 
